In article PMC7037052, “Predicting the Blood-Brain Barrier Permeability of New Drug-Like Compounds via HPLC with Various Stationary Phases” (Molecules, 2020):

Columns and labels:
[1] = parameters: method as in PMID 16331406; conditions: rats; BB = Cbrain/Cplasma; training set; cited from earlier work
[2] = RP-HPLC retention on Cosmosil Cholester column, buffer pH 7.4-acetonitrile; format: physicochemical; conditions: for log kw, Cholester: extrapolated to buffer pH 7.4 as mobile phase, 25 °C; for s Cholester: slope of Soczewiński-Wachtmeister equation, acetonitrile φ 0.4–0.6
Description: (§1) Retention parameters reported as the log k values were calculated by the expression:(1) logk=log(tR−t0)/t0 where tR and t0 are the retention times of the solute and a non-retained compound (citric acid), respectively. They were used to calculate the log kw values, i.e., logarithms of retention parameter in the buffer as the mobile phase. For this purpose the Soczewiński-Wachtmeister’s equation was used:log k = log kw − sφ(2) where φ is the volume fraction of organic modifier in the mobile phase; k and kw are retention parameters corresponding to mixed effluent and buffer as the mobile phase, respectively. The slope s is characteristic of a given solute and chromatographic system. Strong linear relationships between log k and φ values were found for all the compounds in the range of effluent composition examined (R^2 > 0.9). The log kw values determined for the ODS (log kw, ODS), IAM (log kw, IAM) and Cholester (log kw, Cholester) columns were intercorrelated and the following linear relationships with a very good statistical quality were obtained:log kw, ODS = 0.691(± 0.094) + 0.982(± 0.044) log kw, IAM(3) SD = 0.257; R^2 = 0.8880; N = 65 log kw, ODS = 0.911(± 0.062) + 0.765(± 0.025) log kw, Cholester(4) SD = 0.192; R^2 = 0.9371; N = 65 log kw, IAM = 0.356(± 0.073) + 0.721(± 0.029) log kw, Cholester(5) SD = 0.224; R^2 = 0.9068; N = 65
(§2) Shimadzu Vp (Shimadzu, Izabelin, Poland) liquid chromatographic system equipped with LC 10AT pump, SPD 10A UV-Vis detector, SCL 10A system controller, CTO-10 AS chromatographic oven and Rheodyne injector valve with a 20 µL loop was applied in HPLC measurements. Three stationary phases were employed: • Purosphere RP-18e (ODS), 125 × 4 mm i.d., 5 µm (Merck); • IAM.PC.DD2 100 × 4.6 mm i.d., 10 µm (Regis Chemicals Company, Morton Grove, IL, USA); • Cosmosil Cholester, 75 × 2 mm i.d., 2.5 µm (Genore, Warsaw, Poland).
(§3) As mobile phases buffer-acetonitrile mixtures were used. The buffer was prepared from 0.01 mol L^−1 solutions of Na2HPO4 and citric acid and the pH 7.4 value was fixed before mixing with organic modifier. With the ODS column acetonitrile concentration in the effluent, expressed as a volume fraction (φ, v/v), was changed in the range 0.3–0.6, with the constant step of 0.1. The flow rate was 1 mL min^−1. With the IAM column acetonitrile concentration was changed in the range 0.2–0.5, also with the constant step of 0.1 and the flow rate was 1.3 mL min^−1. With the Cosmosil Cholester column acetonitrile concentration was changed in the range 0.4–0.6, with the constant step of 0.05 and the flow rate was 0.4 mL min^−1. Samples of test compounds were dissolved in acetonitrile—c.a. 0.005 mg mL^−1. […] They were detected under UV light at 210 and 254 nm. All measurements were carried out at 25 °C. The dead time values were measured from non-retained compound (citric acid) peaks. All reported log kw values are the average of at least three independent measurements. The extrapolated retention coefficients (logs kw) achieved by HPLC on ODS, IAM and Cholester stationary phases were used for modelling the log BB permeation of 65 drug-like compounds employed as a whole test set (Table 1).

[3] = RP-HPLC retention on IAM.PC.DD2 (immobilized artificial membrane) column, buffer pH 7.4-acetonitrile; format: physicochemical; conditions: for log kw, IAM: extrapolated to buffer pH 7.4 as mobile phase, 25 °C; for s IAM: slope of Soczewiński-Wachtmeister equation, acetonitrile φ 0.2–0.5
Description: as §1, §2, §3

[4] = RP-HPLC retention on Purosphere RP-18e (ODS) column, buffer pH 7.4-acetonitrile; format: physicochemical; conditions: for log kw, ODS: extrapolated to buffer pH 7.4 as mobile phase, 25 °C; for s ODS: slope of Soczewiński-Wachtmeister equation, acetonitrile φ 0.3–0.6
Description: as §1, §2, §3

[5] = parameters: method as in PMID 24157086, PMID 25528370; conditions: cited from earlier work
normal cells = tested on: normal cells; parameters: method as in doi:10.1016/j.arabjc.2016.12.024, PMID 24126095; conditions: cited from earlier work
[6] = tested on: Herpes simplex virus type 1; parameters: method as in PMID 30807815; conditions: cited from earlier work
erythrocytes = tested on: erythrocytes; parameters: method as in PMID 30807815; conditions: cited from earlier work
normal Vero cells = tested on: normal Vero cells; parameters: method as in PMID 30807815; conditions: cited from earlier work
human cancer cells = tested on: human cancer cells; parameters: method as in doi:10.1016/j.arabjc.2016.12.024, PMID 24126095; conditions: cited from earlier work

log kw, Cholester [2]	s Cholester [2]	log kw, IAM [3]	s IAM [3]	log kw, ODS [4]	s ODS [4]	Compound	log BBexp. [1]	toxic effects for normal cells (normal cells)	antiproliferative activities in human cancer cells (human cancer cells)	also measured
–	–	–	–	–	–	CN1Cc2c(C(=O)OC(C)(C)C)ncn2-c2ccsc2C1=O [Compound 99632-94-7]	−0.25	–	–	–
–	–	–	–	–	–	NC(N)=Nc1nc(-c2ccccc2)cs1 [Compound 2507-81-5]	−0.18	–	–	–
1.29	2.75	1.33	3.33	1.90	3.82	COC(=O)Cc1nnc2n(c1=O)CCN2c1ccc(C)cc1 [Compound 8]	–	–	–	antinociceptive effect in mice [5]: strongest antinociceptive effect
–	–	–	–	–	–	CN1C(=O)CC[C@H]1c1cccnc1 [Compound 486-56-6]	0.04	–	–	–
–	–	–	–	–	–	Clc1ccc(NC2=NCCN2)c(Cl)c1 [Compound 23830-88-8]	0.16	–	–	–
–	–	–	–	–	–	Clc1cccc(Cl)c1NC1=NCCN1 [Compound 4205-90-7]	0.19	–	–	–
2.05	3.61	1.85	4.11	2.53	4.49	CCc1nnc2n(c1=O)CCN2c1ccc(Cl)c(Cl)c1 [Compound 6]	–	less toxic effects	significant antiproliferative activities	potency against Herpes simplex virus type 1 [6]: remarkable concentration-dependent potency; oxidatively-induced haemolysis of erythrocytes (erythrocytes): inhibiting the oxidatively-induced haemolysis; toxicity to normal Vero cells (normal Vero cells): low toxicity
–	–	–	–	–	–	Cc1ncc2n1-c1ccc(Cl)cc1C(c1ccccc1F)=NC2 [Compound 59467-70-8]	0.32	–	–	–
–	–	–	–	–	–	COc1ccc2nc([S+]([O-])Cc3ncc(C)c(OC)c3C)[nH]c2c1 (stereo not shown) [Compound 73590-58-6]	−0.82	–	–	–
1.66	3.33	1.42	3.51	2.26	4.20	Cc1cccc(N2CCn3c2nnc(-c2ccco2)c3=O)c1C [Compound 21]	–	less toxic effects	significant antiproliferative activities	–
–	–	–	–	–	–	Brc1cccc(Br)c1NC1=NCCN1 [Compound 4205-93-0]	0.33	–	–	–
0.57	1.84	1.00	2.88	1.30	3.12	CCc1nnc2n(c1=O)CCN2c1ccc(C)cc1 [Compound 2]	–	less toxic effects	significant antiproliferative activities	–
0.20	1.25	0.55	2.10	0.97	2.70	CCc1nnc2n(c1=O)CCN2c1ccccc1 [Compound 1]	–	less toxic effects	significant antiproliferative activities	–
–	–	–	–	–	–	Brc1cc(Br)c(NC2=NCCN2)c(Br)c1 [Compound 38941-33-2]	0.58	–	–	–
3.22	5.12	2.68	5.44	3.56	5.81	O=c1c(CCc2ccccc2)nnc2n1CCN2c1ccc(Cl)cc1 [Compound 64]	–	less toxic effects	significant antiproliferative activities	–
–	–	–	–	–	–	c1cncc([C@@H]2CCCN2)c1 [Compound 494-97-3]	0.32	–	–	–
2.68	4.55	2.11	4.51	3.28	5.61	CCOc1ccc(N2CCn3c2nnc(Cc2ccccc2)c3=O)cc1 [Compound 51]	–	–	–	antinociceptive effect in mice [5]: strongest antinociceptive effect
–	–	–	–	–	–	CC(C)(C)OC(=O)c1ncn2c1[C@@H]1CCCN1C(=O)c1c(Br)cccc1-2 [Compound 84379-13-5]	−0.09	–	–	–
2.83	4.71	2.34	4.78	3.28	5.10	O=c1c(Cc2ccccc2Cl)nnc2n1CCN2c1ccccc1 [Compound 42]	–	–	–	antinociceptive effect in mice [5]: strongest antinociceptive effect
1.18	2.61	1.24	3.25	1.78	3.56	CCc1nnc2n(c1=O)CCN2c1ccc(Cl)cc1 [Compound 5]	–	less toxic effects	significant antiproliferative activities	–
1.20	2.78	0.96	2.72	1.74	3.48	Cc1ccccc1N1CCn2c1nnc(-c1ccco1)c2=O [Compound 19]	–	less toxic effects	significant antiproliferative activities	–
–	–	–	–	–	–	CN1CCC[C@H]1c1cccnc1 [Compound 54-11-5]	0.56	–	–	–
1.22	2.68	1.11	3.02	1.67	3.48	COc1ccccc1N1CCn2c1nnc(-c1ccco1)c2=O [Compound 22]	–	less toxic effects	significant antiproliferative activities	–
